PubChem BioAssay AID330 (DTP/NCI, 2004)
Several values for one entry are separate records, joined by “and”; a condition that tells them apart may be missing. Identical values can stand only once. Inconclusive results and toxic doses are left out. Rule for the calls: active = survival T/C of 150% or more; inactive = T/C below 125% in these data.

System: P388 leukemia ip, CD2F1 mice, survival T/C
Test: NCI In Vivo Anticancer Drug Screen. Data for tumor model P388 Leukemia (intraperitoneal) in CD2F1 (CDF1) mice
Conditions: endpoint: median survival time, higher = longer survival
How it was run: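 Mice carrying the transplanted tumor received test compound or vehicle. Survival was recorded in each group, and the value is the treated-group measurement divided by that of the vehicle-treated control group.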

[1] = dose: 50.0 mg/kg/injection, schedule: Q01DX009 (ip), vehicle: saline
[2] = dose: 100.0 mg/kg/injection, schedule: Q01DX009 (ip), vehicle: saline
[3] = dose: 60.0 mg/kg/injection, schedule: Q01DX005 (ip), vehicle: saline with Tween-80
[4] = dose: 25.0 mg/kg/injection, schedule: Q01DX005 (ip), vehicle: Klucel (hydroxypropylcellulose) (HPC)
[5] = dose: 50.0 mg/kg/injection, schedule: Q01DX005 (ip), vehicle: Klucel (hydroxypropylcellulose) (HPC)
[6] = dose: 100.0 mg/kg/injection, schedule: Q01DX005 (ip), vehicle: Klucel (hydroxypropylcellulose) (HPC)
[7] = dose: 200.0 mg/kg/injection, schedule: Q01DX005 (ip), vehicle: Klucel (hydroxypropylcellulose) (HPC)
[8] = dose: 50.0 mg/kg/injection, schedule: Q01DX005 (ip), vehicle: saline
[9] = dose: 100.0 mg/kg/injection, schedule: Q01DX005 (ip), vehicle: saline
[10] = dose: 200.0 mg/kg/injection, schedule: Q01DX005 (ip), vehicle: saline
[11] = dose: 120.0 mg/kg/injection, schedule: Q01DX005 (ip), vehicle: saline with Tween-80
[12] = dose: 240.0 mg/kg/injection, schedule: Q01DX005 (ip), vehicle: saline with Tween-80
[13] = dose: 50.0 mg/kg/injection, schedule: Q01DX005 (ip), vehicle: saline with Tween-80
[14] = dose: 100.0 mg/kg/injection, schedule: Q01DX005 (ip), vehicle: saline with Tween-80
[15] = dose: 200.0 mg/kg/injection, schedule: Q01DX005 (ip), vehicle: saline with Tween-80

Measured: T/C

COc1c(O)cc2c(c1O)C1OC(CO)C(O)C(O)C1OC2=O (centres undefined)
inactive: dose: 12.75 mg/kg/injection, schedule: Q01DX005 (ip), vehicle: Klucel (hydroxypropylcellulose) (HPC) 100 % of control | dose: 25.5 mg/kg/injection, schedule: Q01DX005 (ip), vehicle: Klucel (hydroxypropylcellulose) (HPC) 98 % of control | dose: 51.0 mg/kg/injection, schedule: Q01DX005 (ip), vehicle: Klucel (hydroxypropylcellulose) (HPC) 97 % of control | dose: 102.0 mg/kg/injection, schedule: Q01DX005 (ip), vehicle: Klucel (hydroxypropylcellulose) (HPC) 100 % of control

CN(C)CCP(=O)(O)O
inactive: dose: 100.0 mg/kg/injection, schedule: Q01DX001 (ip), vehicle: saline with Tween-80 95 % of control | dose: 200.0 mg/kg/injection, schedule: Q01DX001 (ip), vehicle: saline with Tween-80 100 % of control | dose: 400.0 mg/kg/injection, schedule: Q01DX001 (ip), vehicle: saline with Tween-80 100 % of control

CCCN(CCC)CC(=O)Nc1c(Cl)cccc1Cl
inactive: dose: 25.0 mg/kg/injection, schedule: Q01DX009 (ip), vehicle: saline 100 % of control | [1] 110 % of control | [2] 105 % of control

CCCN(CCC)CCN1C(=O)NC(C)(c2ccccc2)C1=O (centres undefined)
inactive: dose: 7.5 mg/kg/injection, schedule: Q01DX005 (ip), vehicle: saline with Tween-80 100 % of control | dose: 15.0 mg/kg/injection, schedule: Q01DX005 (ip), vehicle: saline with Tween-80 101 % of control and 97 % of control | dose: 30.0 mg/kg/injection, schedule: Q01DX005 (ip), vehicle: saline with Tween-80 99 % of control and 103 % of control | [3] 101 % of control and 94 % of control and 97 % of control

CC(Cc1nc2ccccc2[nH]1)Cc1nc2ccccc2[nH]1
inactive: [4] 100 % of control | [5] 99 % of control | [6] 92 % of control | [7] 91 % of control

OCCN(CCO)Cc1nc2cc(Cl)c(Cl)cc2[nH]1
inactive: [8] 97 % of control | [9] 112 % of control | [10] 90 % of control

CC(C(=O)O)S(=O)(=O)O (centres undefined)
inactive: dose: 20.0 mg/kg/injection, schedule: Q01DX009 (ip), vehicle: saline with Tween-80 100 % of control | dose: 40.0 mg/kg/injection, schedule: Q01DX009 (ip), vehicle: saline with Tween-80 96 % of control

CSc1ccc(C(C)=O)cc1
inactive: dose: 50.0 mg/kg/injection, schedule: Q01DX009 (ip), vehicle: saline + alcohol 100 % of control | dose: 100.0 mg/kg/injection, schedule: Q01DX009 (ip), vehicle: saline + alcohol 102 % of control | dose: 200.0 mg/kg/injection, schedule: Q01DX009 (ip), vehicle: saline + alcohol 100 % of control | dose: 400.0 mg/kg/injection, schedule: Q01DX009 (ip), vehicle: saline + alcohol 104 % of control

O=C(CBr)C1(Br)CCN(Cc2ccccc2)CC1
inactive: dose: 3.13 mg/kg/injection, schedule: Q01DX009 (ip), vehicle: Klucel (hydroxypropylcellulose) (HPC) 109 % of control | dose: 6.25 mg/kg/injection, schedule: Q01DX009 (ip), vehicle: Klucel (hydroxypropylcellulose) (HPC) 115 % of control | dose: 12.5 mg/kg/injection, schedule: Q01DX009 (ip), vehicle: Klucel (hydroxypropylcellulose) (HPC) 109 % of control

CCCCOC(=O)NC(=O)c1cc2cc(I)cc(I)c2oc1=O
inactive: [3] 91 % of control | [11] 94 % of control | [12] 94 % of control

NC(Cc1cnc[nH]1)C(=O)O (centres undefined)
inactive: [1] 110 % of control | [2] 107 % of control | dose: 200.0 mg/kg/injection, schedule: Q01DX009 (ip), vehicle: saline 110 % of control

Cc1cc(N/N=C/c2cccnc2)c2ccccc2n1
inactive: dose: 50.0 mg/kg/injection, schedule: Q01DX009 (ip), vehicle: Klucel (hydroxypropylcellulose) (HPC) 94 % of control | dose: 100.0 mg/kg/injection, schedule: Q01DX009 (ip), vehicle: Klucel (hydroxypropylcellulose) (HPC) 100 % of control | dose: 200.0 mg/kg/injection, schedule: Q01DX009 (ip), vehicle: Klucel (hydroxypropylcellulose) (HPC) 98 % of control

COC(=O)CC1(C(=O)OC)Oc2ccc(Br)cc2C(=O)N1c1cccc(Cl)c1Cl (centres undefined)
inactive: [13] 100 % of control | [14] 91 % of control | [15] 100 % of control

CC(N[Si](c1ccccc1)(c1ccccc1)C(C)(C)C)c1ccccc1 (centres undefined)
inactive: [13] 98 % of control | [14] 97 % of control | [15] 97 % of control

COC(=O)CCSC(=S)NCc1ccccc1
inactive: [5] 98 % of control | [6] 96 % of control | [7] 102 % of control

O=C1CCCCCCCCCCC1[N+](=O)[O-] (centres undefined)
inactive: [13] 95 % of control | [14] 92 % of control | [15] 93 % of control

COc1cc(C(=O)Nc2ccc(NC3=NCCN3)cc2)cc(C(=O)Nc2ccc(NC3=NCCN3)cc2)c1
inactive: dose: 6.25 mg/kg/injection, schedule: Q01DX005 (ip), vehicle: saline with Tween-80 102 % of control | dose: 12.5 mg/kg/injection, schedule: Q01DX005 (ip), vehicle: saline with Tween-80 106 % of control | dose: 25.0 mg/kg/injection, schedule: Q01DX005 (ip), vehicle: saline with Tween-80 115 % of control

CCCCCC(Nc1nncs1)Nc1nncs1
inactive: [3] 94 % of control | [11] 96 % of control | [12] 105 % of control

NC1CN(C(COCc2ccccc2)c2ccc(OCc3ccccc3)cc2)C1=O (centres undefined)
inactive: [13] 100 % of control | [14] 103 % of control | [15] 97 % of control

CC1=N/C(=C\c2ccccc2Br)C(=O)O1
inactive: [8] 114 % of control | [9] 119 % of control | [10] 119 % of control

O=C1CCC(c2nc3ccccc3[nH]2)N1Cc1csc(-c2ccccc2)n1 (centres undefined)
inactive: [3] 98 % of control | [11] 93 % of control | [12] 88 % of control

C[CH2][Sn]([CH2]C)[CH2]C.C[CH2][Sn]([CH2]C)[CH2]C
inactive: dose: 12.5 mg/kg/injection, schedule: Q01DX005 (ip), vehicle: Klucel (hydroxypropylcellulose) (HPC) 105 % of control and 97 % of control | [4] 101 % of control and 114 % of control | [5] 110 % of control and 97 % of control | [6] 113 % of control

O=S(O)O
inactive: [8] 108 % of control | [9] 101 % of control | [10] 109 % of control | dose: 400.0 mg/kg/injection, schedule: Q01DX005 (ip), vehicle: saline 116 % of control
